Laboratory results published in patent US20250129076A1, “FUSED TETRACYCLIC COMPOUNDS, COMPOSITIONS AND DIAGNOSTIC APPLICATIONS THEREOF” (priority 2021, published 2025).
“Also recorded” adds a separate entry of the source.

How the values were obtained:
RNA = experiment: Detection of RNA binding by the compounds (Table 2); conditions: yes = binding detected, empty cells not reported
RNA of E. coli BL21 = experiment: Working concentration of compound (25) for RNA detection, agarose gel electrophoresis; assay type: binding; conditions: 10-50 ng RNA with 5, 10, 20, 40 ng of compound 25; 1% agarose gel, TBE buffer
Procedure: To check the working concentration of compound (25) using different concentrations of RNA, RNA of E. coli BL21 was isolated and diluted to 10 ng/μl from the stock. Using a TBE buffer 1% agarose gel was casted and gel electrophoresis is performed using 10-50 ng concentration of RNA with 5, 10, 20, 40 ng of compound 25.

Calf Thymus DNA (CT-DNA) = experiment: Increase in fluorescence upon binding with Calf Thymus DNA; conditions: figure legends FIG. 12-22
Procedure: 1 mg/ml stock solutions of all the compounds were prepared in DMSO. Few insoluble compounds were then dissolved in non-polar solvent. 10 ul (1 mg/ml) of each of the compounds were used to do an absorbance scan in the TECAN nano reader and the graphs were plotted. The absorbance peaks for each of the compounds were tabulated and further used as excitation wavelength for fluorescence scans. Initially an absorbance scan was performed to identify the excitation maxima after which the excitation wavelength was used to obtain the emission maxima/fluorescence plots. Once the excitation and emission maxima were known, different concentrations of the compounds were used starting from 10 ng to saturating concentrations to obtain fluorescent spectra. Similarly, a fixed concentration of the compound was used to which an increasing concentration of DNA/RNA was added until saturation to find the nucleic acid binding properties of the dyes and compounds. In addition, a fixed concentration of DNA/RNA was used, to which increasing concentrations of the compounds were added until saturation. The data obtained was plotted and used for calculating binding constants and determining the binding ability of the dyes and compounds. 1 mg/ml stock solutions of all compounds the were prepared in DMSO. Few insoluble compounds were then dissolved in nonpolar solvent. 10 ul (1 mg/ml) of each of the compounds were used to do an absorbance scan in the TECAN nano reader and the graphs were plotted. The absorbance peaks for each of the compounds were tabulated and further used as excitation wavelength for fluorescence scans. Initially an absorbance scan was performed to identify the excitation maxima after which the excitation wavelength was used to obtain the fluorescence plots. Once the excitation and emission maxima were known, different concentrations of the compounds were used starting from 10 ng to saturating concentrations to obtain fluorescent spectra. Similarly, a fixed concentration of the said compound was used to which an increasing concentration of DNA/RNA was added until saturation to find the nucleic acid binding properties of the dyes and compounds. In addition, a fixed concentration of DNA/RNA was used, to which increasing concentrations of the compounds were added until saturation. The data obtained was plotted and used for calculating binding constants and determining the binding ability of the dyes and compounds.

DNA [1] = experiment: Detection of DNA binding by the compounds (Table 2); conditions: yes = binding detected, empty cells not reported
[2] = Comparison with commonly available DNA staining agents: photostability (Table 3); assay type: physicochemical
[3] = Comparison with commonly available DNA staining agents: toxicity (Table 3); conditions: Hoescht and DAPI cells wrap: 'Potentially carcinogenic & Mutagenic'
DNA [4] = experiment: Emission maxima with DNA; assay type: binding; conditions: Table 6
Procedure: The absorbance peaks for each of the compounds were tabulated and further used as excitation wavelength for fluorescence scans. Initially an absorbance scan was performed to identify the excitation maxima after which the excitation wavelength was used to obtain the emission maxima/fluorescence plots. Once the excitation and emission maxima were known, different concentrations of the compounds were used starting from 10 ng to saturating concentrations to obtain fluorescent spectra. Similarly, a fixed concentration of the compound was used to which an increasing concentration of DNA/RNA was added until saturation to find the nucleic acid binding properties of the dyes and compounds. In addition, a fixed concentration of DNA/RNA was used, to which increasing concentrations of the compounds were added until saturation. The data obtained was plotted and used for calculating binding constants and determining the binding ability of the dyes and compounds.
(§1) 1 mg/ml stock solutions of all compounds the were prepared in DMSO. Few insoluble compounds were then dissolved in nonpolar solvent. 10 ul (1 mg/ml) of each of the compounds were used to do an absorbance scan in the TECAN nano reader and the graphs were plotted. The absorbance peaks for each of the compounds were tabulated and further used as excitation wavelength for fluorescence scans. Initially an absorbance scan was performed to identify the excitation maxima after which the excitation wavelength was used to obtain the fluorescence plots. Once the excitation and emission maxima were known, different concentrations of the compounds were used starting from 10 ng to saturating concentrations to obtain fluorescent spectra. Similarly, a fixed concentration of the said compound was used to which an increasing concentration of DNA/RNA was added until saturation to find the nucleic acid binding properties of the dyes and compounds. In addition, a fixed concentration of DNA/RNA was used, to which increasing concentrations of the compounds were added until saturation. The data obtained was plotted and used for calculating binding constants and determining the binding ability of the dyes and compounds.

[5] = Absorbance and fluorescence scans (excitation and emission maxima); assay type: physicochemical; design: unit not given here; conditions: compound alone; Table 6
Procedure: 1 mg/ml stock solutions of all the compounds were prepared in DMSO. Few insoluble compounds were then dissolved in non-polar solvent. 10 ul (1 mg/ml) of each of the compounds were used to do an absorbance scan in the TECAN nano reader and the graphs were plotted.
The absorbance peaks for each of the compounds were tabulated and further used as excitation wavelength for fluorescence scans. Initially an absorbance scan was performed to identify the excitation maxima after which the excitation wavelength was used to obtain the emission maxima/fluorescence plots. Once the excitation and emission maxima were known, different concentrations of the compounds were used starting from 10 ng to saturating concentrations to obtain fluorescent spectra. Similarly, a fixed concentration of the compound was used to which an increasing concentration of DNA/RNA was added until saturation to find the nucleic acid binding properties of the dyes and compounds. In addition, a fixed concentration of DNA/RNA was used, to which increasing concentrations of the compounds were added until saturation. The data obtained was plotted and used for calculating binding constants and determining the binding ability of the dyes and compounds. […]
as §1

Protein = experiment: Detection of protein binding by the compounds (Table 2); conditions: yes = binding detected, empty cells not reported
Description: Absorbance Spectra and Fluorescence Spectra conditions for compound+DNA/RNA/Protein Methods of experimentation: An Excitation Max: 488 nm, Emission Max: 560 nm, Band width: 488-600 nm on Alexa Fluor 488 channel were used for flow cytometry and microscopic determinations TECAN spectrofluorimeter.

double-stranded DNA = conditions: when bound; cited from earlier work

Row | SMILES | RNA (binding detected) (RNA) | increase in fluorescence upon binding with Calf Thymus DNA (CT-DNA) (Calf Thymus DNA (CT-DNA)) [fold] | DNA (binding detected) (DNA [1]) | Emission maxim with DNA (DNA [4]) [nm] | Emission maxima [5] | Excitation Maxima [5] | also measured
1 | CN1C/C(=C\c2ccc(O)c(O)c2)C(=O)c2ccc(O)cc21 [Compound 025] | yes | > 1000 | – | – | – | – | RNA bands on gel (RNA of E. coli BL21): bands are in all the wells
2 | COc1ccc2c(c1)SCC1=C2c2cc(OC)c(OC)cc2C1 [Compound 021] | yes | – | – | – | – | – | –
3 | COc1cc2c(cc1OC)[C@@H]1c3cc(-c4ccccc4)c(OC)cc3N(S(=O)(=O)c3ccc(C)cc3)C[C@]1(O)C2 [Compound 038] | yes | 2 | – | – | – | – | –
4 | Oc1ccc2c(c1)OC[C@](O)(Cc1ccc(O)c(O)c1)[C@H]2O [Compound 017] | yes | > 1000 | yes | – | – | – | –
5 | N=C(N)c1ccc(-c2cc3ccc(C(=N)N)cc3[nH]2)cc1 [DAPI] | – | – | – | – | – | – | Photostability [2]: 10 min; Toxicity [3]: carcinogenic; also recorded: & Mutagenic
6 | Cc1cc2c(cc1O)OC[C@]1(O)Cc3cc(O)c(O)cc3[C@H]21 [Compound 032] | – | – | – | 570 | 570 | 490 | –
7 | Cc1ccc(C)cc1 [Compound 026] | yes | – | yes | 590 | 580 | 490 | –
8 | CCc1cc(O)ccc1C(=O)/C=C/C1=CC(OC)C(O)C=C1 (centres unmarked) [Compound 031] | yes | – | – | 610 | 610 | 490 | –
9 | O=C1/C(=C/c2ccc(O)c(O)c2)COc2cc(O)ccc21 [Compound 015] | yes | – | yes | 610 | 570 | 490 | –
10 | Cc1ccc(S(=O)(=O)N2C[C@]3(O)Cc4cc(O)c(O)cc4[C@@H]3c3cc(-c4ccc(F)cc4)c(O)cc32)cc1 [Compound 039] | – | – | yes | – | – | – | –
11 | COc1ccc2c(c1)OC/C(=C\c1ccc(OC)c(OC)c1)C2=O [Compound 009] | yes | 15 | – | – | – | – | –
12 | Oc1cc2c(cc1O)[C@@H]1c3cc(-c4ccccc4)c(O)cc3OC[C@]1(O)C2 [Compound 035] | yes | > 1000 | – | 580 | 580 | 490 | Protein (binding detected) (Protein): yes
13 | Oc1cc2c(cc1O)[C@@H]1c3cc(-c4ccc(F)cc4)c(O)cc3OC[C@]1(O)C2 [Compound 037] | yes | > 1000 | yes | – | – | – | Protein (binding detected) (Protein): yes
14 | CCCN(CCCN(C)C)c1cc(/C=C2/Sc3ccccc3N2C)c2ccccc2[n+]1-c1ccccc1 [SYBR Green] | – | – | – | – | – | – | absorbs at a wavelength (double-stranded DNA): around 497 nm; emits fluorescence (double-stranded DNA): around 530 nm
15 | Cc1ccc2c(c1)OC/C(=C\c1ccc(C)c(C)c1)C2=O [Compound 016] | – | 5 | yes | 610 | 610 | 490 | –
16 | COc1cc(/C=C2\COc3cc(O)ccc3C2=O)ccc1O [Compound 007] | Yes | 25 | yes | – | – | – | –
17 | O=C1C=C2C(=C[C@@]3(O)COc4cc(O)ccc4[C@@H]23)C=C1O [Compound 019] | – | > 1000 | yes | 570 | 570 | 490 | –
18 | Oc1ccc2c(c1)OC[C@]1(O)Cc3cc(O)c(O)cc3[C@H]21 [Compound 033] | yes | > 1000 | yes | – | – | – | –
